Results published in US12310975B2, “Modulators of BCL6 proteolysis and associated methods of use” (Arvinas Operations, Inc., priority 2019, dated 2025).
Where two headings read alike, the source gives them in different places.

Molecular target: BCL6 (Homo sapiens (Human), UniProt P41182)
Test: Immunofluorescence high content imaging of BCL6 degradation in T47D cells
Format: cell-based
Conditions: for DC50: class symbols A-D, read-out: EC50 (nM)*
Method: Immunofluorescence Protocol for High Cotent Imaging of BCL6
T47D cells were seeded in 100 μl volume of RPMI1640-10% FBS in a 96-well black/clear bottom plates for adherent lines (Corning #3904).
Day 1. T47D breast cancer epithelial cells were seeded at a density so that confluence is ˜70-90% at endpoint. Cells were seeded at 7K/0.1 ml/well the morning prior to the addition of exemplary bifunctional degradation compounds.
Day 2. Prepare an 11 point 3-fold serial dilution of exemplary bifunctional compound in DMSO and aliquot an appropriate volume to cell growth media to generate a 2× final concentration of exemplary bifunctional compound. Add an equal volume (0.1 ml) of 2× exemplary bifunctional compound/media mix to previously plated cells, for a final top concentration in aqueous cell growth media of 0.1 or 1 μM. Incubate for 3 days at 37° C., 5% CO2.
Day 5 Immunofluorescence. Discard cell media. Wash wells with 200 μl of room temperature phosphate-buffered saline (PBS). Prepared 4% paraformaldehyde (PFA) from 16% PFA (Electron Microscopy Sciences #15710) using 1×PBS. Fifty μl of 4% PF was added to each well and incubate for 15 minutes at room temperature to fix the cells. The PFA was aspirated and the cells washed twice with PBS (200 μl)).
Prepared 0.1% Triton X-100 in PBS using 10% triton X-100 stock. The cells were permeabilized by adding 100 ul of the 0.1% Triton X-100 in PBS to each well to permeabilize cells and incubating at room temperature for 15 minutes. Cells were washed twice with PBS.
Prepared 3% BSA/PBS (from Thermofisher #37515 Blocker BSA in TBS, 10%), and 100 ul was added to each well. The cells were incubated for at least 1 hour at room temperature.
Prepared 1% BSA/PBS using Blocker BSA/PBS, and the 3% BSA/PBS removed from the wells.
For no primary antibody controls, 50 μl 1% BSA/PBS was added.
Primary antibody (BCL6 Rb Ab, CST-14895, Cell Signaling) was diluted 1:300 in 1% BSA/PBS using Blocker BSA/PBS.
Fifty μl of primary antibody added to all remaining wells (i.e., all wells other than the primary antibody controls) and the cells were incubated overnight at 4° C. with slow orbital movement.
Day 6. Contents of the wells was removed and the cells washed four times with 200 ul PBS. 1% BSA/PBS was prepared using Blocker BSA in PBS.
Diluted secondary antibody goat anti-Rb IgG Alexa-488 1:1000, and cell mask-Alexa-647 1:3000 in 1% BSA/PBS in the same mix. Add 50 μl to each well and incubate at room temperature for 1 hour in the dark.
Cells were washed three times with 200 ul PBS, and then incubated for 10 minutes with 100 ul Hoechst dye at 1 μg/mL (20 mM stock) to stain cell nuclei. Wells were then washed with 200 μl PBS, and 100 ul of PBS was added to each well and the plate covered plate with a plastic opaque cover. Plates were stored at 4° C. and covered in aluminum foil until imaged.
Plates were equilibrated to room temperature prior to reading. The bottom of the plate was wiped with 70% isopropanol immediately prior to imaging.
10×, 4 fields/well, include Top hat smoothing in the analysis protocol.

Q: Which DC50 does the source give for `CNC(=O)COc1cc2cc(Nc3nc(N4CCC(OCCOCCOCCNc5cccc6c5C(=O)N(C5CCC(=O)NC5=O)C6=O)CC4)ncc3Cl)ccc2n(C)c1=O` (stereo not drawn) [compound 57, 2-((6-((5-chloro-2-(4-(2-(2-(2-((2-(2,6-dioxopiperidin-3-yl)-1,3-dioxoisoindolin-4-yl)amino)ethoxy)ethoxy)ethoxy)piperidin-1-yl)pyrimidin-4-yl)amino)-1-methyl-2-oxo-1,2-dihydroquinolin-3-yl)oxy)-N-methylacetamide] here?
A: Its DC50 is greater than 100 nM.

Q: With `CNC(=O)COc1cc2cc(Nc3nc(N4CCC(c5cn(CCOCCOCCOc6ccc7c(c6)C(=O)N(C6CCC(=O)NC6=O)C7=O)nn5)CC4)ncc3Cl)ccc2n(C)c1=O` (stereo not drawn) [compound 120, 2-((6-((5-chloro-2-(4-(1-(2-(2-(2-((2-(2,6-dioxopiperidin-3-yl)-1,3-dioxoisoindolin-5-yl)oxy)ethoxy)ethoxy)ethyl)-1H-1,2,3-triazol-4-yl)piperidin-1-yl)pyrimidin-4-yl)amino)-1-methyl-2-oxo-1,2-dihydroquinolin-3-yl)oxy)-N-methylacetamide] as the molecule, how does the DC50 read?
A: The DC50 was 50 to 100 nM.

Q: `CNC(=O)COc1cc2cc(Nc3nc(N4CCC(c5cn(CCOCCOCCOCC(=O)N[C@H](C(=O)N6C[C@H](O)C[C@H]6C(=O)N[C@@H](C)c6ccc(-c7scnc7C)cc6)C(C)(C)C)nn5)CC4)ncc3Cl)ccc2n(C)c1=O` [compound 116, (2S,4R)-1-((S)-2-(tert-butyl)-14-(4-(1-(5-chloro-4-((1-methyl-3-(2-(methylamino)-2-oxoethoxy)-2-oxo-1,2-dihydroquinolin-6-yl)amino)pyrimidin-2-yl)piperidin-4-yl)-1H-1,2,3-triazol-1-yl)-4-oxo-6,9,12-trioxa-3-azatetradecanoyl)-4-hydroxy-N-((S)-1-(4-(4-methylthiazol-5-yl)phenyl)ethyl) pyrrolidine-2-carboxamide] was tested. Which DC50 did it give?
A: The DC50 was 10 to 50 nM.

Q: With `CNC(=O)COc1cc2cc(Nc3nc(N4CCO[C@H](COc5ccc(C(=O)NC6CCC(=O)NC6=O)c(OC)c5)C4)ncc3Cl)ccc2n(C(C)C)c1=O` (stereo partly drawn) [compound 351, 4-{[(2S)-4-[5-chloro-4-({3-[(methylcarbamoyl)methoxy]-2-oxo-1-(propan-2-yl)-1,2-dihydroquinolin-6-yl}amino)pyrimidin-2-yl]morpholin-2-yl]methoxy}-N-(2,6-dioxopiperidin-3-yl)-2-methoxybenzamide] as the molecule, how does the Dmax (T47D cells) read?
A: The Dmax was less than 50%.

Q: And the IC50 (T47D cells)?
A: Its IC50 is 10 to 50 nM.

Q: `CNC(=O)COc1cc2cc(Nc3nc(N4CCC(OCCOCCOCCOCCOCCOCCOc5ccc6c(c5)C(=O)N(C5CCC(=O)NC5=O)C6=O)CC4)ncc3Cl)ccc2n(C)c1=O` (stereo not drawn) [compound 68, 2-((6-((5-chloro-2-(4-((17-((2-(2,6-dioxopiperidin-3-yl)-1,3-dioxoisoindolin-5-yl)oxy)-3,6,9,12,15-pentaoxaheptadecyl)oxy)piperidin-1-yl)pyrimidin-4-yl)amino)-1-methyl-2-oxo-1,2-dihydroquinolin-3-yl)oxy)-N-methylacetamide] was tested. Which DC50 did it give?
A: Its DC50 is greater than 100 nM.

Q: What does the source list for `CC(=O)COc1cc2cc(Nc3nc(N4CCC(N5CCC(Oc6ccc7c(c6)C(=O)N(C6CCC(=O)NC6=O)C7=O)C5)CC4)ncc3Cl)ccc2n(C)c1=O` (stereo not drawn) [compound 177, 5-((1-(1-(5-chloro-4-((1-methyl-2-oxo-3-(2-oxopropoxy)-1,2-dihydroquinolin-6-yl)amino)pyrimidin-2-yl)piperidin-4-yl)pyrrolidin-3-yl)oxy)-2-(2,6-dioxopiperidin-3-yl)isoindoline-1,3-dione]?
A: IC50: ≥ 100 nM; Dmax (T47D): < 50%

Q: Which Dmax (T47D) does the source give for `CNC(=O)COc1cc2cc(Nc3nc(N4CCC(OC5CC6(CCN(c7cccc(C(=O)NC8CCC(=O)NC8=O)c7OC)CC6)C5)CC4)ncc3Cl)ccc2n(C(C)C)c1=O` (stereo not drawn) [compound 449, 3-[2-({1-[5-chloro-4-({3-[(methylcarbamoyl)methoxy]-2-oxo-1-(propan-2-yl)-1,2-dihydroquinolin-6-yl}amino)pyrimidin-2-yl]piperidin-4-yl}oxy)-7-azaspiro[3.5]nonan-7-yl]-N-(2,6-dioxopiperidin-3-yl)-2-methoxybenzamide] here?
A: The Dmax was 50 to 70%.

Q: Which DC50 does the source give for `CNC(=O)COc1cc2cc(Nc3nc(N4CCC(Cc5cn(CCOc6ccc7c(c6)C(=O)N(C6CCC(=O)NC6=O)C7=O)nn5)CC4)ncc3Cl)ccc2n(C)c1=O` (stereo not drawn) [compound 112, 2-((6-((5-chloro-2-(4-((1-(2-((2-(2,6-dioxopiperidin-3-yl)-1,3-dioxoisoindolin-5-yl)oxy)ethyl)-1H-1,2,3-triazol-4-yl)methyl)piperidin-1-yl)pyrimidin-4-yl)amino)-1-methyl-2-oxo-1,2-dihydroquinolin-3-yl)oxy)-N-methylacetamide] here?
A: Its DC50 is 10 to 50 nM.

Q: For `CNC(=O)COc1cc2cc(Nc3nc(N4CCN(CCCN5CCN(c6ccc7c(c6)CN(C6CCC(=O)NC6=O)C7=O)CC5)CC4)ncc3Cl)ccc2n(C)c1=O` (stereo not drawn) [compound 103, 2-((6-((5-chloro-2-(4-(3-(4-(2-(2,6-dioxopiperidin-3-yl)-1-oxoisoindolin-5-yl)piperazin-1-yl)propyl)piperazin-1-yl)pyrimidin-4-yl)amino)-1-methyl-2-oxo-1,2-dihydroquinolin-3-yl)oxy)-N-methylacetamide], which DC50 is on record?
A: Its DC50 is 10 to 50 nM.

Q: For `CCn1c(=O)c(OCC(=O)NC)cc2cc(Nc3nc(N4CCC(OC5CC6(C5)CN(c5ccc7c(c5)C(=O)N(C5CCC(=O)NC5=O)C7=O)C6)CC4)ncc3Cl)ccc21` (stereo not drawn) [compound 303, 2-{[6-({5-chloro-2-[4-({2-[2-(2,6-dioxopiperidin-3-yl)-1,3-dioxo-2,3-dihydro-1H-isoindol-5-yl]-2-azaspiro[3.3]heptan-6-yl}oxy)piperidin-1-yl]pyrimidin-4-yl}amino)-1-ethyl-2-oxo-1,2-dihydroquinolin-3-yl]oxy}-N-methylacetamide], which IC50 is on record?
A: The IC50 was less than 10 nM.

Q: And the Dmax (T47D)?
A: The Dmax was 50 to 70%.

Q: What does the source list for `CNC(=O)COc1cc2cc(Nc3nc(N4CCN(CC5CCN(c6cc(OC)c(C(=O)NC7CCC(=O)NC7=O)c(OC)c6)CC5)CC4)ncc3Cl)ccc2n(C)c1=O` (stereo not drawn) [compound 368, 4-[4-({4-[5-chloro-4-({1-methyl-3-[(methylcarbamoyl)methoxy]-2-oxo-1,2-dihydroquinolin-6-yl}amino)pyrimidin-2-yl]piperazin-1-yl}methyl)piperidin-1-yl]-N-(2,6-dioxopiperidin-3-yl)-2,6-dimethoxybenzamide]?
A: Dmax (T47D cells): < 50%; IC50 (T47D cells): 10 to 50 nM

Q: For `CNC(=O)COc1cc2cc(Nc3nc(N4CCC(OC5CN(c6cccc7c6C(=O)N(C6CCC(=O)NC6=O)C7=O)C5)CC4)ncc3Cl)ccc2n(C)c1=O` (stereo not drawn) [compound 255, 2-((6-((5-chloro-2-(4-((1-(2-(2,6-dioxopiperidin-3-yl)-1,3-dioxoisoindolin-4-yl)azetidin-3-yl)oxy)piperidin-1-yl)pyrimidin-4-yl)amino)-1-methyl-2-oxo-1,2-dihydroquinolin-3-yl)oxy)-N-methylacetamide], which IC50 is on record?
A: The IC50 was less than 10 nM.

Q: What about the Dmax (T47D) of the same molecule?
A: The Dmax was less than 50%.

Q: What does the source list for `CCCCn1c(=O)c(OCC(=O)NC)cc2cc(Nc3nc(N4CCN(CC5CCN(c6ccc7c(c6)C(=O)N(C6CCC(=O)NC6=O)C7=O)CC5)CC4)ncc3Cl)ccc21` (stereo not drawn) [compound 317, 2-{[1-butyl-6-({5-chloro-2-[4-({1-[2-(2,6-dioxopiperidin-3-yl)-1,3-dioxo-2,3-dihydro-1H-isoindol-5-yl]piperidin-4-yl}methyl)piperazin-1-yl]pyrimidin-4-yl}amino)-2-oxo-1,2-dihydroquinolin-3-yl]oxy}-N-methylacetamide]?
A: Dmax (T47D cells): 50 to 70%; IC50 (T47D cells): < 10 nM

Q: With `CNC(=O)COc1cc2cc(Nc3nc(N4CCC5(CC4)CC(OC4CCN(c6cccc7c6CN(C6CCC(=O)NC6=O)C7=O)CC4)C5)ncc3Cl)ccc2n(C(C)C)c1=O` (stereo not drawn) [compound 427, 2-{[6-({5-chloro-2-[2-({1-[2-(2,6-dioxopiperidin-3-yl)-1-oxo-2,3-dihydro-1H-isoindol-4-yl]piperidin-4-yl}oxy)-7-azaspiro[3.5]nonan-7-yl]pyrimidin-4-yl}amino)-2-oxo-1-(propan-2-yl)-1,2-dihydroquinolin-3-yl]oxy}-N-methylacetamide] as the molecule, how does the Dmax (T47D cells) read?
A: The Dmax was no less than 70%.

Q: And the IC50 (T47D cells)?
A: The IC50 was less than 10 nM.
